Experimental findings from paper PMC3424241, “The Octadecaneuropeptide ODN Protects Astrocytes against Hydrogen Peroxide-Induced Apoptosis via a PKA/MAPK-Dependent Mechanism” (PLoS ONE, 2012) are described below.

One test deals with caspase-3. Put plainly: Caspase-3 activity, fluorometric Z-DEVD-Rhodamine 110. The settings on record: for effect of inhibitor on the inhibitory action of ODN on H2O2-induced caspase-3 activity: H89 20 µM, U0126 20 µM, U73122 1 µM, chelerythrine 1 µM, 30 min pre-incubation, 1 h 300 µM H2O2 with ODN 0.1 nM. Format: cell-based, rat. How it is done:
(§1) Secondary cultures of rat cortical astrocytes were prepared as previously described [64]with minor modifications. Briefly, cerebral hemispheres from newborn Wistar rats were collected in DMEM/F12 (2∶1; v/v) culture medium supplemented with 2 mM L-glutamine, 1‰ insulin, 5 mM HEPES, 0.4% glucose and 1% of the antibiotic-antimycotic solution. The tissues were dissociated mechanically with a syringe equipped with a 1-mm gauge needle, and filtered through a 100-µm sieve (Falcon, Franklin Lakes, NJ, USA). Dissociated cells were resuspended in culture medium supplemented with 10% FBS, plated in 175-cm^2 flasks (Greiner Bio-one GmbH, Frickenhausen, Germany) and incubated at 37°C in a 5% CO2/95% O2 atmosphere. When cultures were confluent, astrocytes were isolated by shaking overnight the flasks on an orbital agitator. Adhesive cells were detached by trypsination and preplated for 5 min to discard contaminating microglial cells. Then, the non-adhering astrocytes were harvested and plated on 35-mm hydrophilic surface Petri dishes at a density of 3×10^5 cells/ml. For measurement of cell survival, caspase-3 activity and mitochondrial activity, cells were plated in hydrophilic surface 24-well plates at a density of 8×10^4 cells/ml. The cells were incubated at 37°C in a humid atmosphere (5% CO2). After 5 days (DIV5), more than 99% of the cells were labeled with antibodies against glial fibrillary acidic protein [65]. All experiments were performed on 5- to 7-day-old secondary cultures.
At the end of the incubation with test substances, cultured astrocytes were washed twice with PBS at 37°C, resuspended in DMEM (100 µl) and treated with fluorometric caspase-3 Apo-1 assay system. In brief, 100 µl of the cell suspension was incubated with 100 µl of kit buffer and caspase substrate in 96-well plates. Caspase-3 activity was calculated from the slope of the fluorescence measured every 15 min for 3 h with excitation at 485 nm and emission at 530 nm, and expressed as a percentage of the control.

In a further test the test system is cultured rat astrocytes. Put plainly: Cell survival after H2O2, FDA fluorescence. Format: cell-based. The settings on record: for effect of pathway inhibitor on the protective action of ODN: H89 20 µM, U0126 20 µM, U73122 10 µM, chelerythrine 0.1 µM; for protective effect of receptor ligand on H2O2-induced cell death: 30 min pre-incubation with ligand (OP 0.1 nM, [Ala15]ODN 0.1 nM, clonazepam 10 nM), then 1 h 300 µM H2O2; for effect of inhibitor on dbcAMP-promoted astroglial cell survival: H89 20 µM or U0126 20 µM, 1 h 300 µM H2O2 with dbcAMP 1 mM. How it is done: as §1, with “Dissociated cells were resuspended in culture medium supplemented with 10% FBS, plated in 175-cm^2 flasks (Greiner Bio-one GmbH, Frickenhausen, Germany) and incubated at 37°C in a 5% CO2/95% O2 atmosphere.” left out, “For measurement of cell survival, caspase-3 activity and mitochondrial activity, cells were plated in hydrophilic surface 24-well plates at a density of 8×10^4 cells/ml.” left out, “After 5 days (DIV5), more than 99% of the cells were labeled with antibodies against glial fibrillary acidic protein [65].” left out
Cultured cells were incubated at 37°C with fresh serum-free culture medium in the absence or presence of H2O2 and/or ODN for 1 h. Cells were then incubated for 10 min at 37°C with 0.3 µg/ml calcein-AM (producing green fluorescence in living cells), rinsed twice with culture medium without probe and examined on an inverted microscope (Leica, Heidelberg, Germany) equipped with a double pass filter.
For quantification of surviving astrocytes, cells were incubated for 8 min with 15 µg/ml FDA-AM, rinsed twice with phosphate-buffered saline (PBS) and lysed with a Tris/HCl solution containing 1% sodium dodecyl sulfate (SDS). Fluorescence was measured with excitation at 485 nm and emission at 538 nm, using a microplate reader (Bio-Tek FLx 800).

In test [1] the test system is cAMP formation in astroglial cells (adenylyl cyclase). Put plainly: cAMP production, radioimmunoassay. Type of test: cell-based, rat. The settings on record: antagonist 1 µM, 30 min pre-incubation with 0.1 mM IBMX; ODN 0.1 nM, 10 min. How it is done: as §1, with “For measurement of cell survival, caspase-3 activity and mitochondrial activity, cells were plated in hydrophilic surface 24-well plates at a density of 8×10^4 cells/ml. The cells were incubated at 37°C in a humid atmosphere (5% CO2). After 5 days (DIV5), more than 99% of the cells were labeled with antibodies against glial fibrillary acidic protein [65]. All experiments were performed on 5- to 7-day-old secondary cultures.” left out
Cultured cells were pre-incubated for 30 min in serum-free medium containing 0.1 mM IBMX to inhibit phosphodiesterases, and then incubated in the same solution, in the presence or absence of test substances. […] The concentration of cAMP was measured by using a cAMP RIA kit. […]
On the technique in general: cAMP levels reflect the balance of adenylyl cyclase and phosphodiesterase activity.

Test [2] concerns glutathione (GSH) in cultured astrocytes. Put plainly: Intracellular glutathione content, mBCl fluorescence. Type of test: cell-based, rat. The settings on record: antagonist 1 µM, 30 min pre-incubation; ODN 0.1 nM, 1 h; flumazenil statement covers control and H2O2-treated cells. How it is done: as §1
Reduced GSH was measured by using the thiol-reactive probe mBCl. At the end of the treatment period, the culture medium was removed and the cells were incubated with the mBCl probe (40 µM) at 37°C for 30 min and then washed twice with PBS. Fluorescence intensity was measured with excitation at 360 nm and emission at 485 nm, using a microplate reader (Bio-Tek FLx 800).

A further test concerns ERK1 and ERK2. Put plainly: ERK phosphorylation, Western blot. Format: cell-based, rat. The settings on record: ODN 0.1 nM, 1 h; flumazenil 1 µM, cyclo1-8[DLeu5]OP 1 µM, H89 20 µM, U0126 20 µM. How it is done:
as §1
Cultured cells were incubated at 37°C for 1 h with fresh serum-free medium in the absence or presence of test substances. Total proteins were extracted with lysis buffer containing 1% Triton X-100, 50 mM Tris/HCl and 10 mM EDTA. After centrifugation (20,000 g, 4°C, 15 min), the proteins contained in the supernatant were precipitated by addition of ice-cold 10% TCA. The extract was centrifuged (15,000 g, 4°C, 15 min) and washed three times with alcohol/ether. The pellet was denatured (100°C, 5 min) in 50 mM Tris/HCl (pH 7.5) containing 20% glycerol, 0.7 M 2-mercaptoethanol, 0.004% bromophenol blue and 3% SDS, and then migrated on a 10% SDS-polyacrylamide gel electrophoresis (PAGE). After separation, proteins were electrically transferred onto nitrocellulose membrane (Amersham, Les Ulis, France). […] Signal was quantified using an image analysis system (Biocom, Les Ulis, France).

Where [3] appears, read: 30 min pre-incubation, then 1 h 300 µM H2O2 with ODN 0.1 nM, FDA fluorescence.

For `COc1ccc2c(c1)CC[C@@H]1[C@@H]2CC[C@]2(C)[C@@H](NCCCCCCN3C(=O)C=CC3=O)CC[C@@H]12` [U73122], the “effect of inhibitor on the inhibitory action of ODN on H2O2-induced caspase-3 activity” value with caspase-3 is “neither U73122 nor chelerythrine could suppress the effect of ODN”. For the same molecule, the “effect of pathway inhibitor on the protective action of ODN” value (“effect of pathway inhibitor” for short) with cultured rat astrocytes (setting [3]) is listed as “did not modify the protective effect of ODN”.

In the case of `CCOC(=O)c1ncn2c1CN(C)C(=O)c1cc(F)ccc1-2` [flumazenil], in test [1], the “effect of antagonist on ODN-stimulated cAMP formation” value is reported as “did not affect the increase of cAMP induced by ODN”. Besides, the “effect of antagonist on ODN-stimulated GSH formation” value in test [2] is given as “did not impair the effect of ODN on glutathione production neither in control nor in H2O2-treated cells”. Moreover, the “effect of antagonist or inhibitor on ODN-induced ERK phosphorylation” value (shortened to “effect of antagonist or inhibitor”) with ERK1 and ERK2 was “did not affect ODN-induced ERK phosphorylation”. In addition, in the test with cultured rat astrocytes (antagonist 1 µM, 30 min pre-incubation, then 1 h 300 µM H2O2 with ODN 0.1 nM, FDA fluorescence), the “effect of receptor antagonist on the glioprotective action of ODN” value is on record as “did not affect the protective effect of ODN”.

As to `O=C1CN=C(c2ccccc2Cl)c2cc([N+](=O)[O-])ccc2N1` [clonazepam], the “protective effect of receptor ligand on H2O2-induced cell death” value in the test with cultured rat astrocytes (FDA fluorescence) is “unable to block the effect of H2O2”.

Take `N#CC(=C(/N)Sc1ccccc1N)/C(C#N)=C(/N)Sc1ccccc1N` [U0126]: the “effect of inhibitor on the inhibitory action of ODN on H2O2-induced caspase-3 activity” value with caspase-3 is “abrogated the inhibitory effect of ODN on H2O2-induced caspase-3 activity”. For the same molecule, the “effect of antagonist or inhibitor” value in the test with ERK1 and ERK2 is “suppressed”. The “effect of inhibitor on dbcAMP-promoted astroglial cell survival” value in the test on cultured rat astrocytes (30 min pre-incubation) is “suppressed”. Besides, the “effect of pathway inhibitor” value in the test on cultured rat astrocytes (setting [3]) is “totally abrogated the protective action of ODN”.

In the case of `O=S(=O)(NCCNC/C=C/c1ccc(Br)cc1)c1cccc2cnccc12` [H89], in the test on caspase-3, the “effect of inhibitor on the inhibitory action of ODN on H2O2-induced caspase-3 activity” value is reported as “abrogated the inhibitory effect of ODN on H2O2-induced caspase-3 activity”. Further, the “effect of antagonist or inhibitor” value in the test with ERK1 and ERK2 is “suppressed”. The “effect of inhibitor on dbcAMP-promoted astroglial cell survival” value in the test with cultured rat astrocytes (30 min pre-incubation) was “suppressed”. The “effect of pathway inhibitor” value in the test with cultured rat astrocytes (setting [3]) is given as “totally abrogated the protective action of ODN”.

Regarding `CCCC(=O)Nc1ncnc2c1ncn2[C@@H]1O[C@@H]2COP(=O)(O)O[C@H]2[C@H]1OC(=O)CCC` [dbcAMP, N^6,2′-O-dibutyryladenosine 3′,5′ cyclic monophosphate], the “effect of cAMP analog on H2O2-evoked caspase-3 activation” value with caspase-3 (dbcAMP 1 mM, 1 h 300 µM H2O2) was “mimicked the effect ODN on H2O2-evoked caspase-3 activation”. For the same molecule, the “protective effect of cAMP analog on H2O2-evoked cell death” value in the test on cultured rat astrocytes (dbcAMP 1 mM, 1 h 300 µM H2O2, FDA fluorescence) is “mimicked the protective effect of ODN on H2O2-evoked cell death”.

As for `COc1ccc2c(c[n+](C)c3c4cc5c(cc4ccc23)OCO5)c1OC` [chelerythrine], the “effect of inhibitor on the inhibitory action of ODN on H2O2-induced caspase-3 activity” value in the test on caspase-3 is reported as “neither U73122 nor chelerythrine could suppress the effect of ODN”. Moreover, in the test on cultured rat astrocytes (setting [3]), the “effect of pathway inhibitor” value is “did not modify the protective effect of ODN”.

For “[Ala^15]ODN: inactive ODN analog (QATVGDVNTDRPGLADLK; Octadecaneuropeptide; UniProt P11030 34-51, looked up, variant L15A)”, in the test on cultured rat astrocytes (FDA fluorescence), the “protective effect of receptor ligand on H2O2-induced cell death” value is on record as “devoid of protective activity”.
